Holding throughout (assay type): cell-based, human
Assay [1] relates to HCT116 colon carcinoma cells. The assay can be described thus: FACS analysis of cell division by PKH2 fluorescence after doxorubicin treatment. As to conditions: 200 nM doxorubicin 24 hr. How it is done:
(§1) HCT116 colon carcinoma cells (Myohanen et al., 1998, Cancer Res. 58: 591-593; Accession No. CCL-247, American Type Culture Collection, Manassas, Va.), including wild-type, p21−/− (clone 80S4) and p53−/− (clone 379.2) cell lines (a gift of Dr. B. Vogelstein, Johns Hopkins University) were grown in Dulbecco Modified Eagle Medium with 10% FC2 serum. Cells were plated at 5×10^6 cells per 15-cm plate and treated for 24-hr with 200 nM doxorubicin. Thereafter, cells were allowed to recover in drug-free media up to 10 days. For fluorescence-activated cell sorter (FACS) analysis of cell division, cells were labeled with PKH2 (a lipophilic fluorophore; Sigma Chemical Co., St. Louis, Mo.), which stably incorporates into the plasma membrane and distributes evenly between daughter cells, resulting in gradual decrease in PKH2 fluorescence during consequent cell divisions (Horan et al., 1989, Nature 340: 167-168). FACS analysis and cell sorting carried out as described in Chang et al. (1999, Cancer Res. 59: 3761-3767 and 1999, Oncogene 18: 4808-4818). Sorted fractions of senescent (pKH2^hi) and proliferating (PKH2^lo) cells (90-95% purity) were analyzed for DNA content using propidium iodide (PI) staining and FACS analysis as described by Jordan et al. (1996, Cancer Res. 56: 816-825). […]
Changes in PKH2 fluorescence were monitored by FACS on different days after doxorubicin treatment. […]
(In general: Flow cytometry measures light scatter and fluorescence of single cells or particles in a stream.)

In a further assay the test system is p21. In words: Immunoblotting of p53 and p21 in wild type, p21−/− and p53−/− HCT116 cell lines treated with doxorubicin. The settings on record: wild type vs p53−/− and p21−/− HCT116. How it is done: (§2) In these experiments, poly(A)^+ RNA and protein extracts were prepared from PKH2^lo and PKH2^hi cell populations, separated in different experiments 6, 9 or 10 days after release from doxorubicin. Fluorescent cDNA probes were synthesized and used for hybridization with the Human UniGEM V 2.0 cDNA microarray and signal analysis (assays were conducted by IncyteGenomics, St. Louis, Mo., as described at that company's web site, www.incyte.com). Changes in gene expression were verified by semi-quantitative reverse transcription-PCR (RT-PCR), essentially as described (Noonan et al., 1990, Proc. Natl. Acad. Sci. USA 87: 7160-7164), using β-actin as an internal normalization standard and the oligonucleotide primers shown in Table 3. RT-PCR analysis was carried out using two pairs of proliferating- and senescent-cell RNA preparations isolated in independent experiments, with the same results; for a subset of the genes, the assays were reproduced with the same pair of RNA samples. […] Bands were detected using horseradish peroxidase-labeled secondary antibodies and ECL chemiluminescence detection kit (Amersham Pharmacia Biotech, Piscataway, N.J.).
Background: A western blot detects proteins with antibodies after separation by electrophoresis.

For a further assay, the system named is Maspin. The assay can be described thus: Immunoblotting of protein products of senescence-associated genes in doxorubicin-treated HCT116 cells. The method, then: as §2
Assay [2] relates to HCT116 colon carcinoma cells. The assay can be described thus: Senescence-associated β-galactosidase (SA-β-gal) staining. As to conditions: PKH2hi fraction after 200 nM doxorubicin 24 hr. How it is done: as §1
In assay [3] the test system is HCT116 colon carcinoma cells. The assay can be described thus: Clonogenicity of sorted populations (colony formation). The settings on record: PKH2hi fraction separated after doxorubicin treatment. The method, then: as §1
Assay [4] relates to senescence-associated genes in HCT116 cells. The assay can be described thus: RT-PCR of senescence-associated gene expression in wild type, p21−/− and p53−/− HCT116 cells upon doxorubicin treatment. How it is done:
as §2
To elucidate the roles of p53 and p21 in the observed changes in gene expression, expression of senescence-associated genes upon doxorubicin treatment of wild type, p21−/− and p53−/− HCT116 cells was analyzed. RNA samples were isolated before the addition of the drug, immediately after one-day treatment with doxorubicin, and on three consecutive days after the removal of the drug.

In assay [5] the test system is HCT116 colon carcinoma cells. In words: DNA content analysis by propidium iodide staining and FACS. The settings on record: PKH2hi fraction after 200 nM doxorubicin 24 hr. How it is done:
as §1

As for `COc1cccc2c1C(=O)c1c(O)c3c(c(O)c1C2=O)C[C@@](O)(C(=O)CO)C[C@@H]3O[C@H]1C[C@H](N)[C@H](O)[C@H](C)O1` [doxorubicin], the “day on which a proliferating cell population (PKH2lo) emerged” value in assay [1] (days after treatment) was determined as 4 days. Besides, the “growth arrest of PI-negative cells (PKH2 fluorescence)” value in assay [1] (first 2-3 days after treatment) is “remained growth-arrested”. In the assay on p21, the “p21 protein induction, dependence on p53” value is “strongly dependent on p53”. For the same molecule, the “Maspin induction at the protein level” value in the assay with Maspin is “very strong induction”. For the same molecule, the “SA-β-gal staining of PKH2hi cells” value in assay [2] was “stained positively for SA-β-gal”. In addition, in assay [3], the “colony formation by PKH2hi cells” value was “have lost their proliferative capacity”. Besides, the “Maspin induction in p53−/− cells” value in assay [4] (p53−/− HCT116) is “still readily detectable in p53−/− cells”. In assay [4] (p53−/− vs wild type HCT116), the “BTG2 induction in p53−/− cells” value is “inducible by doxorubicin in p53−/− cells, albeit to a lesser degree than in the wild type cells”. Also, in assay [4] (unsorted HCT116 cells, compared with the other growth-inhibitory genes), the “EPLIN induction in the unsorted cells” value is listed as “weakest induction”. Moreover, in assay [4] (wild type vs p53−/− HCT116), the “Amphiregulin induction, dependence on p53” value is reported as “only moderate dependence on p53”; the “BTG1 induction, dependence on p53” value is reported as “independent of p53”; the “IGFBP-6 induction, dependence on p53” value is on record as “no dependence on p53”; the “MIC-1 induction, dependence on p53” value is recorded as “only weak dependence on p53”. Also, the “cell cycle phase of PKH2hi cells (DNA content)” value in assay [5] is reported as “remained in G2”.
